# Assay results from patent publication US8937155B2 (priority 2010, dated 2015).
# Entries after “also recorded” stand apart in the source; their conditions may differ. Ends that are not written are not given here. Peptide text beside a SMILES is read from it.
# Assays:
# in vitro [1] = conditions: for stability relative to the original oncocin sequence: bacterial lysate of E. coli BL21 AI; for half-life at 150 μg/mL: pH 7.4
# Protocol: Bacteria (E. coli BL21 AI) were cultured over night at 37° C. in nutrient broth (Carl Roth GmbH & Co. KG, Karlsruhe, Germany). This suspension was centrifuged (5000 rpm, 4° C.) in a AVANTI® J=20-XP centrifuge using a JLA-10500 rotor (Beckman coulter, Fullerton, USA). The pellet was washed with phosphate buffered saline (PBS, 8.7 mmol/L Na2HPO4, 1.2 mmol/L KH2PO4, 150 mmol/L NaCl, pH 7.4) and centrifuged in an ALLEGRA® 21 R centrifuge (Beckman Coulter, 3000 rpm, 4° C., 20 min). The pellet was resuspended in PBS (60 mg/mL) and lysed on ice using ultra sonic (2×2 min with 2 s on/2 s off) applied via micro tip (750 W, 40% amplitude; Fisher Biobiock Scientific, Illkirch, France). One mL aliquots were centrifuged (15400 rpm, 20 min, 4° C.) and the supernatant was stored at −80′C.
# The peptide concentration was determined with a Bradford protein assay (Bradford M M. Rapid and Sensitive Method for Quantitation of Microgram Quantities of Protein Utilizing Principle of Protein-Dye Binding. Analytical Biochemistry 72: 248-54, 1976). Briefly, 0.01% (w/v) Coomassie brilliant blue G250 was dissolved in 5% aqueous ethanol containing 8.5% orthophosphoric (Bradford reagent). The mixture was incubated first at 60° C. for 1 h and then at room temperature for 12 h. After filtration 200 μl of the reagent were mixed with 50 μl sample solution in a polystyrole 96-well plate and incubated for 15 min in the dark. The absorption was measured at 595 nm against the negative control (50 μl PBS+200 μL Bradford reagent). The protein concentration was calculated from a calibration curve of bovine serum albumin.
# The stability against bacterial proteases was determined in a bacterial lysate of E. coli BL21 AI adjusted with PBS to a protein concentration of 0.5 mg/mL. Peptides were dissolved in the bacterial lysate at a final concentration of 150 μg/mL and incubated at 37° C. Aliquots were taken in triplicates after 0, 30, 60, 120, and 240 min and precipitated by addition of trichloroacetic acid to a final concentration of 3% (v/v). After 10 minutes on ice, the samples were centrifuged, the supernatant neutralized with sodium hydroxide solution (1 mol/L) and stored at −20° C. The samples were analyzed by RP-HPLC (Jupiter C18-column) using a linear aqueous acetonitrile or methanol gradient containing 0.1% (v/v) TFA. Metabolites were identified by MALDI-TOF-MS.
# E. coli BL21 AI = assay: MIC, liquid broth microdilution assay; type: cell-based, Escherichia coli; conditions: 1% TSB, 37° C., 20±2 h
# Protocol: (§1) Minimal inhibitory concentrations were determined in triplicates by a liquid broth microdilution assay in sterile 96-well plates (Greiner Bio-One GmbH, Frickenhausen, Germany) using a total volume of 100 μL per well (Amsterdam, D. Susceptibility testing of antimicrobials in liquid media in Antibiotics in laboratory medicine (ed. Lorian, V.) 52-111 (Lippincott Williams & Wilkins, Baltimore, 1996)). Aqueous peptide solutions (1 mg/mL) were serially two-fold diluted in 1% tryptic soy broth (TSB). A typical dilution series ranged from 128 μg/mL to 0.5 μg/mL in eight steps. Overnight cultures of bacteria were diluted with 1% TSB to 1.5×10^7 cells/mL (Klebsiella pneumoniae DSM 681, Escherichia coli BL21AI and DSM 10233) and 4×10^7 cells/mL (Micrococcus luteus ATCC 10240). Fifty μL of these solutions were added to each well gaining a starting cell concentration of 7.5×10^5 cells/well and 2×10^6 cells/well, respectively. The plates were incubated at 37° C. and the absorbance of each well was measured after 20±2 h at 595 nm.
# in vitro [2] = conditions: mouse
# Protocol: (§2) The serum stabilities of all peptides were determined in pure and 25% (v/v) aqueous pooled mouse serum (PAA Laboratories GmbH, Pasching, Austria) (Hoffmann R, Vasko M, & Otvos L. Serum stability of phosphopeptides. Analytica Chimica Acta 352: 319-25, 1997). Peptides were dissolved in serum at a final concentration of 75 μg/mL and incubated at 37° C. Aliquots taken in triplicates after 0, 30, 60, 120 and 240 min were precipitated by addition of trichloroacetic acid to a final concentration of 3% (v/v). After 10 minutes on ice, the samples were centrifuged, the supernatant neutralized with sodium hydroxide solution (1 mol/L) and stored at −20° C. The samples were analyzed on the analytical Jupiter C18-column using a linear aqueous acetonitrile or methanol gradient containing 0.1% (v/v) TFA. The metabolites were identified by MALDI-TOF-MS.
# M. luteus DSM 10240 = type: cell-based, Micrococcus luteus; conditions: DSM 10240, 2 h
# Protocol: as §1, with “The plates were incubated at 37° C. and the absorbance of each well was measured after 20±2 h at 595 nm.” left out
# [3] = full mouse serum (pooled mouse serum, PAA Laboratories); conditions: 37° C., up to 480 min
# [4] = bacterial lysate of E. coli BL21 AI; conditions: 37° C., up to 240 min
# E. coli DSM 10233 = type: cell-based, Escherichia coli; conditions: DSM 10233, 2 h
# Protocol: as §1, with “The plates were incubated at 37° C. and the absorbance of each well was measured after 20±2 h at 595 nm.” left out
# K pneumoniae DSM 681 = type: cell-based, Klebsiella pneumoniae; conditions: DSM 681, 2 h
# Protocol: as §1, with “The plates were incubated at 37° C. and the absorbance of each well was measured after 20±2 h at 595 nm.” left out
# [5] = full mouse serum
# Protocol: as §2
Molecule,stability relative to the original oncocin sequence (in vitro [1]),half-life at 150 μg/mL (in vitro [1]; cells or culture medium) [h],minimal inhibitory concentration (MIC) E. coli BL21 AI (E. coli BL21 AI) [µg/mL],half-life at 75 μg/mL (in vitro [2]; full (pure) pooled mouse serum) [h],minimal inhibitory concentration (MIC) M. luteus DSM 10240 (M. luteus DSM 10240) [µg/mL],"remaining at 8 h, 75 μg/mL (in vitro [2]; full (pure, undiluted) pooled mouse serum) [%]",cleaved bond [3],cleaved bond [4],minimal inhibitory concentration (MIC) E. coli DSM 10233 (E. coli DSM 10233) [µg/mL],minimal inhibitory concentration (MIC) K pneumoniae DSM 681 (K pneumoniae DSM 681) [µg/mL],half-life at 150 μg/mL (in vitro [1]; Escherichia coli) [h],half-life at 75 μg/mL (in vitro [2]; pure (full) pooled mouse serum) [h],starting derivative not degraded after 480 min [5],minimal inhibitory concentration (MIC) E. coli BL21 AI (E. coli BL21 AI; listed as 3) [µg/mL]
"CC(C)C[C@H](NC(=O)[C@H](Cc1ccc(O)cc1)NC(=O)[C@@H]1CCCN1C(=O)[C@@H]1CCCN1C(=O)[C@H](CCCCN)NC(=O)[C@H](CC(=O)O)NC(=O)[C@@H](N)C(C)C)C(=O)N1CCC[C@H]1C(=O)N[C@@H](CCCNC(=N)N)C(=O)N1CCC[C@H]1C(=O)N[C@@H](CCCNC(=N)N)C(=O)N1CCC[C@H]1C(=O)N1CCC[C@H]1C(=O)N[C@@H](CCCNC(=N)N)C(=O)N[C@@H](CCCN)C(=O)N[C@H](C(=O)N[C@@H](Cc1ccc(O)cc1)C(=O)N[C@@H](CC(N)=O)C(=O)N[C@@H](CCCN)C(N)=O)[C@@H](C)O [SEQ ID NO. 2, VDKPPYLPRPRPPROTYNO-NH2] (HELM PEPTIDE1{V.D.K.P.P.Y.L.P.R.P.R.P.P.R.[Orn].T.Y.N.[Orn].[am]}$$$$V2.0; N-terminus assumed)",at least three times more stable,2.83,4,2,8,,,,,,,,,
"CC[C@H](C)[C@H](NC(=O)[C@H](CCCN)NC(=O)[C@H](CCCNC(=N)N)NC(=O)[C@@H]1CCCN1C(=O)[C@@H]1CCCN1C(=O)[C@H](CCCNC(=N)N)NC(=O)[C@@H]1CCCN1C(=O)[C@H](CCCNC(=N)N)NC(=O)[C@@H]1CCCN1C(=O)[C@H](CC(C)C)NC(=O)[C@H](Cc1ccc(O)cc1)NC(=O)[C@@H]1CCCN1C(=O)[C@@H]1CCCN1C(=O)[C@H](CCCCN)NC(=O)[C@H](CC(=O)O)NC(=O)[C@@H](N)C(C)C)C(=O)N[C@@H](Cc1ccc(O)cc1)C(=O)N[C@@H](CC(N)=O)C(=O)N[C@@H](CCCN)C(N)=O [SEQ ID NO. 4, VDKPPYLPRPRPPROIYNO-NH2, reference compound] (HELM PEPTIDE1{V.D.K.P.P.Y.L.P.R.P.R.P.P.R.[Orn].I.Y.N.[Orn].[am]}$$$$V2.0; N-terminus assumed)",,,8,2.92,8,60,,,,,,,,
VDKPPYLPRPRPPRRIYNR-NH2,,,,,,,"Arg15-Ile16, major; also recorded: Asn18-Arg19, major",Pro10-Arg11; also recorded: Pro13-Arg14; also recorded: Arg15-Ile16,,,,,,
"VDKPPYLPRPRPPRRIYNR-NH2 [SEQ ID NO. 1, VDKPPYLPRPRPPRRIYNR-NH2, reference compound]",,,4,,8,,,,16,4,1,0.5,,
"CC(C)C[C@H](NC(=O)[C@H](Cc1ccc(O)cc1)NC(=O)[C@@H]1CCCN1C(=O)[C@@H]1CCCN1C(=O)[C@H](CCCCN)NC(=O)[C@H](CC(=O)O)NC(=O)[C@@H](N)C(C)C)C(=O)N1CCC[C@H]1C(=O)N[C@@H](CCCNC(=N)N)C(=O)N1CCC[C@H]1C(=O)N[C@@H](CCCNC(=N)N)C(=O)N1CCC[C@H]1C(=O)N1C[C@H](O)C[C@H]1C(=O)N[C@@H](CCCNC(=N)N)C(=O)N1C[C@H](O)C[C@H]1C(=O)N[C@H](C(=O)N[C@@H](Cc1ccc(O)cc1)C(=O)N[C@@H](CC(N)=O)C(=O)N[C@@H](CCCN)C(N)=O)[C@@H](C)O [SEQ ID NO. 3, VDKPPYLPRPRP-4tHyp-R-4tHyp-TYNO-NH2] (HELM PEPTIDE1{V.D.K.P.P.Y.L.P.R.P.R.P.[Hyp].R.[Hyp].T.Y.N.[Orn].[am]}$$$$V2.0; N-terminus assumed)",at least three times more stable,4,2 to 4,> 8,32,,,,2 to 4,8,,,(60%),4
